In the supplement of paper PMC10307832:

Key:
Assay in all cases: relative viability (nuclei count vs DMSO), 5 days (fraction); higher = more cells survive
Idelalisib = compound: CC[C@H](Nc1ncnc2[nH]cnc12)c1nc2cccc(F)c2c(=O)n1-c1ccccc1 [Idelalisib]
Procedure, shortened: (§1)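 Five library-drug doses spaced by √10 were pinned onto vehicle-anchored 1536-well plates of lung cancer cell lines that had been kept overnight at 37 °C. Cells went 5 days without medium change, then were fixed, permeabilised and Hoechst-stained together, imaged at 4× and counted by MetaXpress. Viability is the ratio of treated-well to vehicle-well nuclei, taken as a median over plates. Plates required control CV below 25% and at least one doubling.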

Pemetrexed = compound: Nc1nc2[nH]cc(CCc3ccc(C(=O)N[C@@H](CCC(=O)O)C(=O)O)cc3)c2c(=O)[nH]1 [Pemetrexed]
Procedure, shortened: as §1

Idelalisib + Palbociclib = compound: CC[C@H](Nc1ncnc2[nH]cnc12)c1nc2cccc(F)c2c(=O)n1-c1ccccc1 [Idelalisib] + CC(=O)c1c(C)c2cnc(Nc3ccc(N4CCNCC4)cn3)nc2n(C2CCCC2)c1=O [Palbociclib] (partner 0.5 µM)
Procedure, shortened: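 The day after seeding in 1536-well plates, lung cancer cell lines were treated by pin tool with a single drug, or with a fixed anchor-drug dose together with five library-drug doses (not always all listed) in √10 steps. After 5 days, a combined fix-and-stain solution (final 0.05% Triton X-100, 1% formaldehyde, 1 ug/ml Hoechst) was added. Nuclei counted on 4× images gave relative viability as treated counts over vehicle counts, reported as the median of duplicate plates.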

Cell Line UMC-11 has a relative viability (Idelalisib; 0.04 µM) of 1.04, a relative viability (Idelalisib; 0.1265 µM) of 1.05 and a relative viability (Idelalisib; 0.4 µM) of 0.921. For the same cell line, the relative viability (Idelalisib; 1.265 µM) was 1.01, the relative viability (Idelalisib; 4 µM) was 0.984 and the relative viability (Pemetrexed; 0.002 µM) was 0.996. The relative viability (Pemetrexed; 0.006325 µM) was 0.955, the relative viability (Pemetrexed; 0.02 µM) was 1.04 and the relative viability (Pemetrexed; 0.06325 µM) was 1.03. The relative viability (Pemetrexed; 0.2 µM) was 0.846, the relative viability (Pemetrexed; 0.2 µM, anchor plate) was 0.805 and the relative viability (Idelalisib + Palbociclib; first compound 0.04 µM) was 0.335. The relative viability (Idelalisib + Palbociclib; first compound 0.1265 µM) was 0.33, the relative viability (Idelalisib + Palbociclib; first compound 0.4 µM) was 0.298 and the relative viability (Idelalisib + Palbociclib; first compound 1.265 µM) was 0.298. For the same cell line, the relative viability (Idelalisib + Palbociclib; first compound 4 µM) was 0.261.
